Test results taken from PubChem BioAssay (NCI).
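48-hour exposure; five concentrations; linearly interpolated endpoints. Abbreviation: GI50, concentration required for 50% inhibition of growth. TGI is the concentration that stops growth completely.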

What was measured:
Test in all cases: NCI anticancer screen, dose series, 48 h
NCI-H522 lung = test system: NCI-H522 lung
A549 NSCLC = test system: A549 NSCLC
SNB-19 CNS = test system: SNB-19 CNS
A498 renal = test system: A498 renal
RPMI-8226 leukemia = test system: RPMI-8226 leukemia
HOP-62 NSCLC = test system: HOP-62 NSCLC
KM12 colon = test system: KM12 colon
BT-549 breast = test system: BT-549 breast
SR leukemia = test system: SR leukemia
T-47D breast = test system: T-47D breast

Row | Structure (SMILES) | TGI (NCI-H522 lung) [µM] | TGI (A549 NSCLC) [µM] | TGI (SNB-19 CNS) [µM] | TGI (A498 renal) [µM] | TGI (RPMI-8226 leukemia) [µM] | TGI (HOP-62 NSCLC) [µM] | TGI (KM12 colon) [µM] | GI50 (NCI-H522 lung) [µM] | GI50 (A549 NSCLC) [µM] | GI50 (BT-549 breast) [µM] | TGI (BT-549 breast) [µM] | GI50 (RPMI-8226 leukemia) [µM] | GI50 (HOP-62 NSCLC) [µM] | GI50 (KM12 colon) [µM] | TGI (SR leukemia) [µM] | GI50 (SR leukemia) [µM] | GI50 (SNB-19 CNS) [µM] | GI50 (A498 renal) [µM] | TGI (T-47D breast) [µM] | GI50 (T-47D breast) [µM]
1 | O=S(=O)(C1=CC(S(=O)(=O)c2ccccc2)CN(Cc2ccccc2)C1c1cccc2ccccc12)c1ccccc1 (stereo unspecified) | > 69 | > 69 | > 69 | > 69 | > 69 | > 69 | > 69 | – | – | – | – | – | – | – | – | – | – | – | – | –
2 | [N-]=[N+]=NCCCn1c2c(c3ccc([N+](=O)[O-])cc3c1=O)C(=O)c1ccccc1-2 | > 100 | > 100 | – | – | > 100 | > 100 | > 100 | 70.3 | 14.4 | 27.4 | > 100 | 6.04 | > 100 | > 100 | – | – | – | – | – | –
3 | COc1cc(NS(=O)(=O)c2ccc(C)cc2)c2nccnc2c1 | 70.2 | > 100 | > 100 | > 100 | > 100 | > 100 | > 100 | – | – | – | – | – | – | – | > 100 | – | – | – | – | –
4 | COc1ccc2c(c1)OC1=C(C(=O)OC1)C2c1cc(OC)c2c(c1)OCCO2 (stereo unspecified) | – | > 100 | > 100 | 0.232 | > 100 | > 100 | > 100 | – | 0.0603 | 0.131 | 28.8 | 0.0871 | 0.0512 | 0.0464 | > 100 | 0.0318 | 0.0697 | 0.0249 | – | –
5 | COC(=O)C(=O)CC(=O)CCn1[nH]c(=O)c(Cl)c(Cl)c1=O | > 100 | > 100 | > 100 | > 100 | – | > 100 | > 100 | – | – | – | – | – | – | – | – | – | – | – | – | –
6 | CCC[CH2][Sn]([CH2]CCC)([O]C(=O)CN)[O]C(=O)CN | 38 | > 100 | > 100 | > 100 | 54.5 | > 100 | > 100 | 11.6 | > 100 | – | – | 15.3 | 7.25 | > 100 | 95.6 | 22.9 | 45.5 | 44.8 | – | –
7 | CCCOC(=O)N[C@H]1CCc2c(Cl)c(OC)c(OC)c(OC)c2-c2ccc(SC)c(=O)cc21 | 0.271 | > 100 | 27.4 | < 0.01 | 7.73 | 50.9 | 1.63 | < 0.01 | < 0.0153 | < 0.01 | 6.01 | < 0.01 | 0.0101 | < 0.01 | 19.2 | < 0.01 | < 0.01 | < 0.01 | – | –
8 | C=CC[P@]1(=O)O[C@H](c2ccccc2)[C@H](C)N1C | – | > 100 | > 100 | > 100 | > 100 | – | > 100 | – | – | – | – | – | – | – | > 100 | – | – | – | – | –
9 | CN(C)Cc1cc(C(F)(F)F)ccc1C(O)(c1ccccc1)c1ccccc1 | 35 | 29.5 | 38.4 | 24.7 | 21.5 | 33.7 | 49.6 | – | – | – | – | – | – | – | 28 | – | – | – | 47.3 | –
10 | C=C(C)C1CC2(C)C(C)CC(O)CC2C(OC(=O)C=C(C)C)C1O (stereo unspecified) | > 100 | > 100 | > 100 | > 100 | – | – | > 100 | – | – | – | > 100 | – | – | – | 51.9 | – | – | – | > 100 | –
11 | CCN(CC)CCNC(Cc1ccccc1)c1ccc(OCc2ccccc2)cc1 (stereo unspecified) | 22.7 | 22 | 22.8 | 7.94 | 6.84 | 21.7 | 18.2 | 10.2 | 7.74 | 3.55 | 18.7 | 2.4 | 8.49 | 5.22 | 6.74 | 2.35 | 9.65 | 2.02 | – | –
12 | CC(=O)C1C(c2ccccc2)C2(C)OC(=O)C(C#N)C12C (stereo unspecified) | – | > 100 | > 100 | – | > 100 | – | > 100 | – | – | – | – | – | – | – | – | – | – | – | – | –
13 | CSC(SC)(C(=O)O)c1cc(-c2c(Cl)cccc2Cl)no1 | 80.3 | > 100 | > 100 | – | 50.4 | > 100 | – | – | – | – | > 100 | – | – | – | > 100 | – | – | – | > 100 | –
14 | O=C1N/C(=C\[N+](=O)[O-])c2ccccc21 | > 100 | > 100 | > 100 | > 100 | > 100 | > 100 | > 100 | – | – | – | – | – | – | – | > 100 | – | – | – | – | –
15 | Cc1cn(C2CC(OC(=O)c3ccc(Cl)cc3)C(COC(=O)c3ccc(Cl)cc3)O2)c(=O)[nH]c1=O (stereo unspecified) | > 100 | > 100 | > 100 | – | > 100 | > 100 | > 100 | – | – | – | > 100 | – | – | – | > 100 | – | – | – | > 100 | –
16 | O=c1[nH]c2ccccc2cc1-c1nc2ccc(Cl)cc2[nH]1 | > 100 | > 100 | > 100 | 15.7 | 6.78 | 59.3 | > 100 | 6.79 | 5.15 | 2.99 | > 100 | 1.42 | 6.79 | 0.385 | – | – | 29.8 | 2.48 | > 100 | 3.33
17 | NC(CCCC(N)P(=O)(O)O)P(=O)(O)O (stereo unspecified) | > 100 | > 100 | – | > 100 | > 100 | – | > 100 | – | – | – | – | – | – | – | – | – | – | – | – | –
18 | Cc1ccc(S(=O)(=O)N/N=C2\CCCCC23CCC(=O)NC3)cc1 (stereo unspecified) | > 100 | > 100 | > 100 | > 100 | > 100 | > 100 | > 100 | – | – | – | – | – | – | – | > 100 | – | – | – | – | –
19 | O=C(Nc1ccc(C(F)(F)F)cc1[N+](=O)[O-])C(=O)C1NC(=S)NC1=O (stereo unspecified) | > 100 | > 100 | > 100 | > 100 | > 100 | > 100 | > 100 | – | – | – | – | – | – | – | > 100 | – | – | – | – | –
20 | N#CCC(=O)N/N=C1/C(=O)N(c2ccc(Cl)cc2)C(=O)C(=O)C1c1nc2ccccc2s1 (stereo unspecified) | > 100 | > 100 | > 100 | > 100 | – | > 100 | > 100 | – | – | – | – | – | – | – | – | – | – | – | – | –
21 | CC1(O)C(C)(O)C2(C)O[Te]3(OC12C)OC1(C)C(C)(O)C(C)(O)C1(C)O3 (stereo unspecified) | 42.2 | 79 | > 100 | – | 37.9 | > 100 | > 100 | – | – | – | – | – | – | – | 51.3 | – | – | – | – | –
22 | COc1ccc(C=O)cc1O[Si](C)(C)C(C)(C)C | – | > 100 | > 100 | > 100 | > 100 | > 100 | > 100 | – | – | – | – | – | – | – | – | – | – | – | – | –
